Results reported in publication PMC6172451 (Frontiers in Microbiology, 2018).
Like-named read-outs stand apart in the source and are kept apart here. Bridges are numbered along the chain shown (N, C = ends). Where no end group is shown, it is not given here.

Columns and labels:
L. monocytogenes 54002 [1] = test: Membrane permeabilization, SYTOX Green stain; format: cell-based, Listeria monocytogenes
Method: The fluorescence was detected using RT-PCR instrument combined with 5 μM SYTOX^TM Green Stain (Invitrogen, United States). Cells were resuspended in sterile 20 mM sodium phosphate buffer to give 10^6 CFU/mL approximately. Bacteriocin was added at final concentration of 256 and 128 μg/mL, respectively, while a sample with added sodium phosphate buffer was used as control. Meanwhile, the treated cells were examined using confocal laser scanning microscopy (CLSM; Leica, United States) combined with 5 μM SYTOX^TM Green Dead Cell Stain.

[2] = 1% (V/V) Tween 20, Tween 80, urea, and EDTA at 37°C for 3 h
Method: After 3 h of incubation at 37°C, the remaining activity against indicator was determined and untreated samples were used as a control test.

[3] = pH stability, remaining antibacterial activity; format: physicochemical; details: 256 μg/mL, 3 h at 37°C, readjusted to pH 6.0
papain = papain (Carica papaya, UniProt P00784); details: 360 μL bacteriocin (256 μg/mL) + 40 μL papain, final 1 mg/mL; pH 6.5; 37°C; 3 h; read-out activity against L. monocytogenes 54002; triplicate
papain, sequence (P00784 134-345): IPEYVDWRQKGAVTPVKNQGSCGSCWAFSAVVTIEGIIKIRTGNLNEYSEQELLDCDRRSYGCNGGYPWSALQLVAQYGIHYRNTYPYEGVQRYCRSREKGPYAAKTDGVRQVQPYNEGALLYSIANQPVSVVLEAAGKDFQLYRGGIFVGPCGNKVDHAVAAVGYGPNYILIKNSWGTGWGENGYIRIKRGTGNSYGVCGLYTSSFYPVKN
Method: (§1) After 3 h of incubation at appropriate the temperature (Table 3), the activity against indicator strain (L. monocytogenes 54002) was determined. Non-enzymic treatment was used as control test.

pepsin = pepsin (Sus scrofa, UniProt P00791); details: 360 μL bacteriocin (256 μg/mL) + 40 μL pepsin, final 1 mg/mL; pH 3; 37°C; 3 h; read-out activity against L. monocytogenes 54002; triplicate
pepsin, sequence (P00791 60-385): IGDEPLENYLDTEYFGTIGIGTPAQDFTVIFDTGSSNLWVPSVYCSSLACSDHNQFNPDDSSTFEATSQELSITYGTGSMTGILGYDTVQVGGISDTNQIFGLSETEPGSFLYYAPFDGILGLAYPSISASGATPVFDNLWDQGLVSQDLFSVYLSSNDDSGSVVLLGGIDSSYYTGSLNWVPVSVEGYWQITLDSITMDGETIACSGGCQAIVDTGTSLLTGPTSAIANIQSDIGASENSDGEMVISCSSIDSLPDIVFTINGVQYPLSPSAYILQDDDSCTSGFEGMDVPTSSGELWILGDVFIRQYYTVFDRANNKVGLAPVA
Method: as §1

chymotrypsin = chymotrypsin (Bos taurus, UniProt P00766); details: 360 μL bacteriocin (256 μg/mL) + 40 μL chymotrypsin, final 1 mg/mL; pH 7.8; 25°C; 3 h; read-out activity against L. monocytogenes 54002; triplicate
Method: as §1

proteinase K = proteinase K (Parengyodontium album, UniProt P06873); details: 360 μL bacteriocin (256 μg/mL) + 40 μL proteinase K, final 1 mg/mL; pH 7.5; 37°C; 3 h; read-out activity against L. monocytogenes 54002; triplicate
proteinase K, sequence (P06873 106-384): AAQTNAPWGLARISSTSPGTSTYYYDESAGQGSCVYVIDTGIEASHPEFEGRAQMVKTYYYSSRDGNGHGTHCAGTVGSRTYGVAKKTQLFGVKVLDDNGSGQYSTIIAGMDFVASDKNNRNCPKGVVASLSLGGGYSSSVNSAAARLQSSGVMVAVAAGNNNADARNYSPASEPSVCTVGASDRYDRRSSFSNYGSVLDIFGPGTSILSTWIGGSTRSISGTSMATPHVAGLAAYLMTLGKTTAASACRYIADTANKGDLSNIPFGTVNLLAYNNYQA
Method: as §1

L. monocytogenes 54002 [4] = test: Mode of action: viable cells and optical density; format: cell-based, Listeria monocytogenes; details: 256 μg/mL bacteriocin, about 10^8 CFU/mL in 20 mM sodium phosphate buffer, 37°C, after 3 h
Method: Cells were harvested and resuspended in sterile 20 mM sodium phosphate buffer to give 10^8 CFU/mL approximately. Bacteriocin was added for final concentration of 256 μg/mL, while a sample without added bacteriocin was used as control. All samples were incubated for 5 h at 37°C. The optical density (600 nm) and viable cells were monitored every 1 h ([Deraz et al., 2007]).

VIADKYYGNGVSCGKHTCTVDWGEAFSCSVSHLANFGHGKC (disulfide 13-18; cysteines drawn unpaired) [plantaricin LPL-1]
Amounts of dead cells (CLSM) (L. monocytogenes 54002 [1]; 256 μg/mL for 10, 20 and 30 min, 5 μM SYTOX Green Dead Cell Stain, confocal laser scanning microscopy): increased gradually
Fluorescence intensity (SYTOX Green) (L. monocytogenes 54002 [1]; 128 and 256 μg/mL, about 10^6 CFU/mL, 5 μM SYTOX Green, RT-PCR instrument, control remained stable): increased
Stability toward surfactants in words [2]: remained stable
Remaining antibacterial activity (%) ([3]; pH 10, pH set with HCl/NaOH, activity against indicator, Figure 5A): 25%
Activity kept ([3]; pH between 2.0 and 7.0): 90%
Diameter (mm) of inhibition zone after enzyme treatment (papain): 0 mm
Diameter (mm) of inhibition zone after enzyme treatment (pepsin): 0 mm
Diameter (mm) of inhibition zone after enzyme treatment (chymotrypsin): 0 mm
Diameter (mm) of inhibition zone after enzyme treatment (proteinase K): 0 mm
Decrease of optical density (600 nm) (L. monocytogenes 54002 [4]): 0.69 units
Decrease of the number of viable cells (L. monocytogenes 54002 [4]): 2.11 Log10 cfu
Thermal stability in words (60, 80, and 100°C for 15 and 30 min): remained stable
Remaining antibacterial activity (%) (121°C, 20 min, 256 μg/mL, autoclave, Figure 5B): 58.82%
